Test results published in patent US8268786B2, “Anti-cancer tocotrienol analogues and associated methods” (First Tech International Limited, priority 2009, dated 2012).
Where two headings read alike, the source gives them in different places.

What was measured:
[1] = system: highly malignant+SA mouse mammary epithelial cell line; assay: MTT antiproliferative assay, +SA mouse mammary epithelial cells; format: cell-based
Method: The antiproliferative effects of Compounds 1-21 were tested using 3-(4,5-dimethylthiazol-2-yl)-2,5-diphenyl tetrasolium bromide (MTT) colorimetric assay utilizing cultures of the highly malignant+SA mouse mammary epithelial cell line maintained on serum-free media and containing 10 ng/mL epidermal growth factor (EGF) and 10 μg/mL insulin as mitogens using 24-well culture plates (6 wells/group) by MTT assay.
Cells were then divided into different treatment groups and given fresh control or treatment media every day. In growth inhibition studies, (IC50), +SA cells were treated with various doses of individual tocotrienol or tocotrienol derivatives for 4 days and then the viable cell number was determined using the MTT assay. Optical density of each sample was read at 570 nm on a microplate reader (SpectraCount, Packard BioScience Company, Meriden, Conn.) against a blank prepared from cell-free cultures. The number of cells/well was calculated against a standard curve prepared by plating various concentrations of cells, as determined by hemocytometer, at the start of each experiment. See McIntyre referenced above.
(§1) For each of the assays performed the compounds were dissolved in aqueous culture media by binding the compounds with bovine serum albumin (BSA).
(§2) An amount of each compound appropriate for the desired final compound concentration was placed in a 1.5 mL screw top glass vial and dissolved in 100 μL of 100% ethanol. Once dissolved, this ethanol/compound solution was added to a small volume of sterile 10% BSA in water and incubated overnight at 37° C. […] Ethanol was added to all treatment media such that the final ethanol concentration was the same in all treatment groups within a given experiment and was always less than 0.1%. Although the examples provided have been described in conjunction with specified amounts of ethanol and other compounds it should be understood that the invention is applicable to embodiments not having those limited concentration.

[2] = system: ER-negative human breast cancer cells MDA-MB-231; assay: MTT antiproliferative assay, MDA-MB-231 cells; format: cell-based; settings: for IC50: Homo sapiens
Method: as §1, §2
(§3) The cell growth of MCF7 (Example 24) and MDA-MB-231 (Example 25) cell lines was measured using the MTT assay procedures described above and an MTT assay kit (TACS™, Trevogen®, Inc., Gaithersburg, Md.). After passing the cells for 3-4 times, growing cells were incubated in a 96-well plate at a density of 8×10^3 cells per well, and allowed to attach for 24 hours. Complete growth medium was then replaced with 100 μL of RPMI serum free medium (GIBCO-Invitrogen, NY) containing various doses (20, 10, 5, 2 μM) of the tested compound and the culture continued at 37° C. under 5% CO2. After 96 hours, the incubated cells were treated with MTT solution (10 μL/well) at 37° C. for 4 hours. The color reaction was stopped by the addition of solubilization/stop solution (100 μL/well). The cells continued to be incubated at 37° C. to completely dissolve the formazan product. Absorbance of the samples was determined at 570 nm with an ELISA plate reader (BioTek, VT). Absorbance readings were converted to estimated cell numbers based on a standard curve prepared by plating various concentration of cells, as determined by hemocytometer, and measuring the absorbance of those cells at the start of each experiment. The IC50 value of each compound was calculated using nonlinear regression (curve fit) of log concentration versus the number of cells/well implemented using GraphPad Prism 5.0 program. The procedure was identical for both human breast cancer cell lines MCF7 and MDA-MB-231.

[3] = system: ER-positive human breast cancer cells MCF7; assay: MTT antiproliferative assay, MCF7 cells; format: cell-based; settings: for IC50: Homo sapiens
Method: as §1, §2, §3

[4] = system: highly metastatic breast cancer cell line MDA-MB-231; assay: BME Cell Invasion Assay (Boyden chamber, calcein-AM); format: cell-based, human; settings: MDA-MB-231, 5 μM
Method: Anti-Invasion Assays were performed to measure the anti-invasive properties of Compounds 1-21 using a 96 well basement membrane extract “BME” Cell Invasion Assay (Cultrex®, Trevogen, Catalog# 3455-096-K) with the highly metastatic breast cancer cell line MDA-MB-231. This assay employs a simplified Boyden Chamber design with a polyethylene terephthalate membrane (8 μm). Detection of cell invasion is quantified using calcein-AM. Cells internalize calcein-AM and intracellular esterases cleave the acetomethylester moiety to generate free calcein. Free calcein fluoresces brightly, and this fluorescence may be used to quantify the number of cells that have invaded across BME. (See Tamilarasan and Borghesani, referenced above)
About […] of basement membrane extract (BME, 1×) coat was added per well. After overnight incubation at 37° C. in a 5% CO2 incubator, 50,000/50 μL of MDA-MB-231 cells in serum free RPMI medium were added to the top chamber of each well, which contained the tested compound at a treatment concentration of 5 μM. About 150 μL of RPMI medium was added to the lower chamber, which contained 10% fetal bovine serum, penicillin/streptomycin, and fibronectin (1 μL/mL) and N-formyl-met-leu-phe (10 nM) as chemoattractants. Cells were allowed to migrate to the lower chamber at 37° C. in a CO2 incubator. After 24 h, the top and bottom chambers were aspirated and washed with a washing buffer solution. About 100 μL of cell dissociation solution/Calcein-AM solution was added to the bottom chamber and incubated for 1 hour at 37° C. in a CO2 incubator. The cells internalized calcein-AM, and the intracellular esterases cleaved the acetomethylester (AM) moiety to generate free calcein. Fluorescence of the samples was determined at 485 nm excitation; 520 nm emissions were measured using a plate reader (BioTek, VT). The numbers of cells that invaded through the BME coat were calculated using a standard curve.
Differences among the various treatment groups were determined by analysis of variance (ANOVA) followed by Dunnett's t-test. Differences were considered to be statistically significant at a value of <0.05, as compared to vehicle treated controls.

[5] = MDA-MB-231, 96 h, read-out: MDA-MB-231 IC50 μM
[6] = MCF7, 96 h, read-out: MCF7 IC50 μM

Row | Compound | activity relative to parent γ-tocotrienol (2) ([1]; +SA cells, versus Compound 2) | IC50 ([1]; Mus musculus, +SA cell, 96 h) | IC50 [2, 5] | IC50 [3, 6] | IC50 ([3]; MCF7, read-out: IC50 values (range)) | potency relative to parent natural tocotrienol ([3]; MCF7, 4 and 10 versus Compound 1, 8 versus Compound 2) | anti-invasive activity (in words) [4] | antiproliferative activity (in words) ([1]; +SA cells) | IC50 ([2]; MDA-MB-231, read-out: IC50 (range)) | antiproliferative activity (in words) ([2]; MDA-MB-231)
1 | CC(C)=CCC/C(C)=C/CC/C(C)=C/CC[C@]1(C)CCc2cc(OC(=O)NS(=O)(=O)c3ccc(C)cc3)c(C)c(C)c2O1 [Compound 8, (R)-2,7,8-trimethyl-2-((3E,7E)-4,8,12-trimethyltrideca-3,7,11-trienyl)chroman-6-yl tosylcarbamate] | ~2 fold | 2 µM | > 10 µM | 5.1 µM | 5 to 10 µM | ~3 fold | – | – | – | –
2 | CC(C)=CCC/C(C)=C/CC/C(C)=C/CC[C@]1(C)CCc2cc(OC(=O)NS(=O)(=O)c3ccc(C)cc3)cc(C)c2O1 [Compound 9, (R)-2,8-dimethyl-2-((3E,7E)-4,8,12-trimethyltrideca-3,7,11-trienyl)chroman-6-yl tosylcarbamate] | – | – | 6.6 µM | > 10 µM | – | – | more active than their natural tocotrienol parent compounds | activity better than that of its parent tocotrienol | 5 to 10 µM | improved activities
